From patent US4943587A, “Hydroxamate derivatives of selected nonsteroidal antiinflammatory acyl residues and their use for cyclooxygenase and 5-lipoxygenase inhibition” (Warner-Lambert Company, priority 1988, dated 1990)

How the values were obtained:
5-Lipoxygenase = molecular target: T1, 5-Lipoxygenase (Rattus norvegicus, UniProt P12527); test: ARBL: RBL-1 whole cell 5-lipoxygenase assay (inhibition of LTB4 formation); assay type: cell-based; settings: RBL-1 cells, A23187 5 μM
T1 construct: host or cells: RBL-1 (rat basophilic leukemia)
T1 sequence (P12527 1-673): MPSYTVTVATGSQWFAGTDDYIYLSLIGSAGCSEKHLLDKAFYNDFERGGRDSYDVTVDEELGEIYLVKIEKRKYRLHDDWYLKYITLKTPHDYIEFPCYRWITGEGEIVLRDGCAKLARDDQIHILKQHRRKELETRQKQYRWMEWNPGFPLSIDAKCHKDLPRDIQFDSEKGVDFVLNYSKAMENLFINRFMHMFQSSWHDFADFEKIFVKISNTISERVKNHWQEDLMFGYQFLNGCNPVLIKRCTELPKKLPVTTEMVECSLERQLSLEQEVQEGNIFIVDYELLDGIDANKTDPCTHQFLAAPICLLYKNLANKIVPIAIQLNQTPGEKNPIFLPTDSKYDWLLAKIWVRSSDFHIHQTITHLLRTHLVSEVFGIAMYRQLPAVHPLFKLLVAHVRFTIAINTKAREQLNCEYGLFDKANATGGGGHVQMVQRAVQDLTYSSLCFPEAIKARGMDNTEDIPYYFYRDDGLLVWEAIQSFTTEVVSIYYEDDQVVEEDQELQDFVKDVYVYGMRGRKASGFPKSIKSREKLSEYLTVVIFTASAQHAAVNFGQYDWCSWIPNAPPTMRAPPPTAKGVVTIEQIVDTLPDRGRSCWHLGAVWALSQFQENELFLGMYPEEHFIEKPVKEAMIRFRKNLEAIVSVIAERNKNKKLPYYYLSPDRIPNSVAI
Experimental: (§1) ARBL/ARBC Whole Cell 5-Lipoxygenase and Cyclooxygenase Assays
(§2) The rat basophilic leukemia cell line (RBL-1) was obtained from the American Type Culture Collection (Rockville, Md.).
(§3) Radioimmuno assay (RIA) kits of LTB4 and PGF2α were obtained from Amersham (Arlington Heights, Ill.) and Seragen (Boston, Mass.) respectively.
RBL-1 cells are grown in suspension culture in Eagle's minimum essential medium supplemented with 12% fetal bovine serum at 37° C. in an incubator supplied with air-5% carbon dioxide. Cells are harvested by centrifugation. They are washed with cold phosphate buffered saline pH 7.4 (PBS; NaCl, 7.1 g; Na2 PO4, 1.15 g; KH2 PO4, 0.2 g; and KCl, 0.2 g/l). Cells are finally suspended in PBS containing 1.0 mM calcium at a density of 2×10^6 cells/ml. Cells are incubated with and without test agent (in DMSO) (1% DMSO is without effect on arachidonic acid metabolism) for ten minutes at room temperature. Calcium ionophore A23187 (5 μM) is added and cells are incubated for seven minutes at 37° C. The reaction is stopped by chilling the tubes on ice for ten minutes. Cells are separated by centrifugation and the supernatant is stored at -20°. Aliquots (100 μl) are analyzed for LTB4 and PGF2α using radioimmuno assay kits as provided by the supplier.

Cyclooxygenase [1] = molecular target: T2, Cyclooxygenase (Rattus norvegicus, UniProt Q63921); test: ARBC: RBL-1 whole cell cyclooxygenase assay (inhibition of PGF2α formation); assay type: cell-based; settings: RBL-1 cells, A23187 5 μM; for % inhibition ARBC (RBL whole cell cyclooxygenase, PGF2α inhibition): @ 32 (μM); for IC50: PGF2α formation
T2 construct: host or cells: RBL-1 (rat basophilic leukemia)
T2 sequence (Q63921 27-602): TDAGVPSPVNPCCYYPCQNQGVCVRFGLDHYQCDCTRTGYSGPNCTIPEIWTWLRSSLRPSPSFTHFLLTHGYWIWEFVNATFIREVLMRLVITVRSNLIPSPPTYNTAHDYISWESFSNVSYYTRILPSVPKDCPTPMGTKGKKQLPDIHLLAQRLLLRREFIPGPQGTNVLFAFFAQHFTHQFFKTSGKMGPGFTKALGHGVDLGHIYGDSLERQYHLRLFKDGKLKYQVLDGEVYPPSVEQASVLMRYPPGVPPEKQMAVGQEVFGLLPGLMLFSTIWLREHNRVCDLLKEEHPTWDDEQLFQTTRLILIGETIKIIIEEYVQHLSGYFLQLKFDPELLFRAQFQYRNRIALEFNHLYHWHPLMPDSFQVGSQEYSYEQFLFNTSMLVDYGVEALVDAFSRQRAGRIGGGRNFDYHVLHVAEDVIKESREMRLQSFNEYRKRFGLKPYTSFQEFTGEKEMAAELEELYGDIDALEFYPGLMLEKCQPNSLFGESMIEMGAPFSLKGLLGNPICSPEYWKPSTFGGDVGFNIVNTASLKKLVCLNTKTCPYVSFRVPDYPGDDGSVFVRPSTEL
From the text: as §1, §2, §3
(§4) Cells are harvested by centrifugation. They are washed with cold phosphate buffered saline pH 7.4 (PBS; NaCl, 7.1 g; Na2 PO4, 1.15 g; KH2 PO4, 0.2 g; and KCl, 0.2 g/l). […] Calcium ionophore A23187 (5 μM) is added and cells are incubated for seven minutes at 37° C. The reaction is stopped by chilling the tubes on ice for ten minutes. Cells are separated by centrifugation and the supernatant is stored at -20°. Aliquots (100 μl) are analyzed for LTB4 and PGF2α using radioimmuno assay kits as provided by the supplier.

[2] = tested on: Carrageenan-induced rat foot paw edema; test: Carrageenan-induced rat foot paw edema (CFE-2) assay; assay type: in vivo; settings: read-out: CFE % Inhibition @ Dose; for inhibition in vivo at 30 mg/kg: 30 mg/kg PO; for inhibition in vivo at 30 mg/kg / inhibition in vivo at 10 mg/kg: 1 h before carrageenan, edema at 5 h; for inhibition in vivo at 10 mg/kg: 10 mg/kg PO
Experimental: Carrageenan-Induced Rat Foot Paw Edema-2 (CFE-2) Assay: Protocol
Carrageenan solution (1% w/v) is prepared by dissolving 100 mg carrageenan (Marine Colloidal Div., Springfield, N.J.) in 10 ml of sterile saline (0.9%) solution (Travenol). The solution is vortexed for thirty to forty-five minutes. Animals are dosed with compound one hour before carrageenan challenge. Foot paw edema is induced by injecting 0.05 ml of the 1% carrageenan subcutaneously into the plantar portion of the right hind paw of each rat under light anesthesia. Initial foot paw volume is measured immediately following carrageenan challenge using mercury plethysmography (Buxco Electronics). Edema is measured five hours after carrageenan. The difference between the five-hour and the initial paw volume is expressed as delta edema. The delta edema for each test group of animals is used to calculate the percent inhibition of edema achieved by the compound at the test dose compared with the vehicle control group. The ID25 (the dose at which swelling is inhibited by 25%) was calculated by probit analysis for the dose at which a result of 25 percent inhibition occurs.

[3] = tested on: Mycobacterium-induced rat footpad edema; test: Mycobacterium-induced rat footpad edema (MFE) assay; assay type: in vivo; settings: swelling at 72 h; for ED40: Rattus norvegicus, po, probit analysis, read-out: MFE ID40 (dose at which swelling is inhibited by 40%)
Experimental: Mycobacterium - Induced Rat Footpad Edema Assay (MFE): Protocol
Myobacterium butyricum (5 mg/ml) is suspended in paraffin oil by sonication for ten minutes in an ice bath. Footpad edema is induced on Day 0 by injecting 0.1 ml of the Mycobacterium mixture into the left hindpaw of lightly anesthetized rats. Swelling in the injected hindpaw is determined by mercury plethysmography seventy-two hours after injection. Groups of rats are treated with test compounds (suspended in 0.5% hydroxypropyl methylcellulose with 0.2% Tween-80) or vehicle one hour before Myobacterium injection and on Days 1 and 2. Inhibition of swelling is determined by comparing the change in hindpaw volume in compound- and vehicle-treated rats. An ID40 (the dose at which swelling is inhibited by 40%) was calculated by probit analysis.

Cyclooxygenase [4] = test: ARBC: RBL-1 whole cell cyclooxygenase assay (inhibition of PGF2α formation); assay type: cell-based, rat; settings: ARBL/ARBC IC50; >1.0 cyclooxygenase selective, <1.0 5-lipoxygenase selective
From the text: as §1, §2, §3, §4

[5] = Gastric ulcerogenicity (UD); assay type: in vivo, Male outbred Wistar rats; settings: rat, in vivo, po
Experimental: (§5) Gastric Ulcerogenicity (UD) Protocol
(§6) Male outbred Wistar rats (100-250 gms) were fasted for twenty-four hours. After fasting, test compounds were administered orally (in 2 ml/Kg of 0.5% hydroxypropyl methylcellulose) and the rats were denied access to food and water for six more hours. The rats were then sacrificed with CO2 so that the stomachs could be removed, opened along the greater curvature, and evaluated for the presence of gastric ulcers. Results are expressed as the percent of rats with gastric ulcers at a given dose.

gastric ulcers in rats = test: Gastric ulcerogenicity (UD); assay type: in vivo, Male outbred Wistar rats; settings: 100 mg/kg PO, fasted rats, 6 h
Experimental: as §5, §6

SMILES | IC50 (5-Lipoxygenase) [µM] | % inhibition ARBC (RBL whole cell cyclooxygenase, PGF2α inhibition) (Cyclooxygenase [1]) [%] | inhibition in vivo at 30 mg/kg [2] [%] | ED40 [3] [mg/kg] | inhibition in vivo at 10 mg/kg [2] [%] | also measured
CC1=C(CC(=O)NO)c2cc(F)ccc2/C1=C\c1ccc([S+](C)[O-])cc1 (stereo not drawn) [Example 2A, (Z)-6-fluoro-N-hydroxy-2-methyl-3-[[4-(methylsulfinyl)phenYl]methylene]-3H-indene-1-acetamide] | 12.9 | 0 | 31 |  |  | MFE % Inhibition @ Dose ([3]; 50 mg/kg PO): 53%
COc1ccc2c(c1)c(CC(=O)O)c(C)n2C(=O)c1ccc(Cl)cc1 [Indomethacin, 1(p-chlorobenzoyl)-5-methoxy-2-methylindole-3-acetic acid, reference compound] | > 100 |  |  | 0.21 |  | inhibition in vivo at 5 mg/kg ([2]; po, 5 h): 36%
COc1ccc2c(c1)c(CC(=O)N(O)C(C)C)c(C)n2C(=O)c1ccc(Cl)cc1 [Example 5, 1-(4-Chlorobenzoyl)-N-hydroxy-5-methoxy-2-methyl-N-(1-methylethyl)-1H-indole-3-acetamide] | 0.9 |  |  | 0.82 | 27 | 
COc1ccc2c(c1)c(CC(=O)N(O)C1CCCCC1)c(C)n2C(=O)c1ccc(Cl)cc1 [Example 6, 1-(4-Chlorobenzoyl)-N-cyclohexyl-N-hydroxy-5-methoxy-2-methyl-1H-indole-3-acetamide] | 1.6 |  |  | 4.7 | 22 | RATIO, selectivity of inhibition (Cyclooxygenase [4]): 16.0; IC50 (Cyclooxygenase [1]): 0.1 µM
CONC(=O)Cc1c(C)n(C(=O)c2ccc(Cl)cc2)c2ccc(OC)cc12 [Example 4, 1-(4-Chlorobenzoyl)-N,5-dimethoxy-2-methyl-1H-indole-3-acetamide] | 24 |  |  |  | 40 | RATIO, selectivity of inhibition (Cyclooxygenase [4]): 120; IC50 (Cyclooxygenase [1]): 0.2 µM; TD50 at 6 h [5]: 42 mg/kg
COc1ccc2c(c1)c(CC(=O)N(C)O)c(C)n2C(=O)c1ccc(Cl)cc1 [Example 3, 1-(4-Chlorobenzoyl)-N-hydroxy-5-methoxy-N,2-dimethyl-1H-indole-3-acetamide] | 1.4 |  |  | < 2 | 29 | percent of rats with gastric ulcers at a given dose (UD50 column) (gastric ulcers in rats): 10%
CC1=C(CC(=O)N(C)O)c2cc(F)ccc2/C1=C\c1ccc([S+](C)[O-])cc1 (stereo not drawn) [Example 1, (Z)-6-fluoro-N-hydroxy-N,2-dimethyl-3-[[4-(methylsulfinyl)phenyl]methylene]-3H-indene-1-acetamide] | 1 | 0 | 15 |  |  | MFE % Inhibition @ Dose ([3]; 10 mg/kg PO): 30%
CONC(=O)CC1=C(C)/C(=C/c2ccc([S+](C)[O-])cc2)c2ccc(F)cc21 (stereo not drawn) [Example 2, (Z)-6-fluoro-N-methoxy-2-methyl-3-[[4-(methylsulfinyl)phenyl]methylene]-3H-indene-1-acetamide] | 26.4 | 0 |  |  |  | 
COc1ccc2c(c1)c(CC(=O)NO)c(C)n2C(=O)c1ccc(Cl)cc1 [Oxametacin, reference compound] | 7.5 |  | 46 |  |  | TD50 at 6 h [5]: 103 mg/kg
